Measurements: patent US11903917B2, “MEK-inhibitor for the treatment of viral and bacterial infections” (priority 2017, dated 2024)
Read-outs that look alike come from different tables or passages of the source.

Columns and labels:
[1] = tested on: influenza A virus strain RB1 [A/Regensburg/D6/09 (H1N1 pdm09)]; assay: Progeny virus inhibition assay in A549 cells; format: cell-based
[2] = tested on: influenza A virus strain RB1 [A/Regensburg/D6/09 (H1N1 pdm09)]; conditions: against RB1, Haasbach et al. 2017; cited from earlier work
[3] = tested on: S. aureus 6850; assay: Over-night treated culture, bacterial titers (CFU/ml) and OD600; format: cell-based, Staphylococcus aureus; conditions: for effect on bacterial titers (CFU/ml): over night treatment, S. aureus 6850, vs solvent
[4] = Pharmacokinetics, drug in plasma after i.v. or per os application; format: in vivo, NMRI mice
Description: Blood was collected at 15 min, 30 min, 1 h, 2 h, 4 h, 6 h, 8 h and 24 h (test day 2) after administration and plasma was analysed for the presence of the drug. […] Blood was collected at 15 min, 30 min, 1 h, 2 h, 4 h, 6 h, 8 h and 24 h (test day 2) after administration and plasma was analysed for the presence of the drug. Each data point represents the mean value of three plasma samples. Graphpad Prism 7 software was used to illustrate both figures.
34.88 mg PD-0184264 were dissolved in 0.075 ml DMSO and further diluted with 0.225 ml Cremophor EL/2.7 ml PBS. […] 81.0 mg PD-0184264 were dissolved in 0.2 ml DMSO/0.6 ml Cremophor EL/3.2 ml PBS.
Eight week old male NMRI mice (Charles River Laboratories, Germany) with a body weight of 23.9-36.5 g at administration were used for pharmacokinetic studies. The animals were normally fed. Drinking water was available ad libitum.
Experiments were performed at LPT GmbH (Hamburg, Germany). Sufficient whole blood—taken under isoflurane anaesthesia—was collected to obtain at least 2×100 μl Li-Heparin plasma of 3 animals per group and time-point at the following times: 0 (predose), 15 min, 30 min, 1 h, 2 h, 4 h, 6 h, 8 h and 24 h (test day 2) after administration. The whole blood samples were instantly cooled using an Iso-Therm-Rack system (Eppendorf AG, Germany) until centrifugation within 0.5 hours after withdrawal. Immediately after centrifugation, the samples were stored at −20° C. until further analysis. Plasma analysis was performed using standard procedures at Prolytic GmbH (Frankfurt, Germany).
Drugs were either administrated using a single dosing on test day 1 by oral gavage or by Intravenous bolus injection into a tail vein. The Injection speed was 15 s/dose with an administration volume of 200 μl.

[5] = tested on: A549 cells; conditions: read-out: CC50 value; Haasbach et al. 2017; cited from earlier work
[6] = tested on: MRSA strain S. aureus (USA300); assay: Cell-free culture bacterial growth (OD600); conditions: 50 μM, monitored for 360 minutes, vs solvent DMSO
Description: Bacterial growth was monitored for 360 minutes.
MRSA bacteria were incubated with different concentrations of the MEK inhibitor ranging from 0-100 μM and bacterial growth was monitored six hours after cultivation.

[7] = tested on: S. aureus 6850; format: cell-based, Staphylococcus aureus
[8] = tested on: S. aureus 6850; assay: MIC of antibiotics (MIC test stripes) after over-night treatment of bacteria with PD0184264; format: cell-based, Staphylococcus aureus; conditions: for MIC: read-out: Minimal inhibitory concentration (MIC)
[9] = tested on: S. aureus USA300; assay: as above; format: cell-based, Staphylococcus aureus; conditions: for MIC: Staphylococcus aureus, read-out: Minimal inhibitory concentration (MIC)
[10] = tested on: MRSA strain USA300; assay: Over-night treated culture, bacterial titers (CFU/ml) and OD600; format: cell-based, Staphylococcus aureus
[11] = tested on: S. aureus; assay: Resistance development during 17 days of constant treatment; format: cell-based, Staphylococcus aureus; conditions: 24 h cycles repeated for 17 days
[12] = Staphylococcus aureus, 6850, S. aureus 6850, culture treated over night with 20 μM PD0184264
[13] = Staphylococcus aureus, 6850, S. aureus 6850, untreated (solvent) culture
[14] = USA300, S. aureus USA300, culture treated over night with PD0184264
[15] = USA300, S. aureus USA300, untreated (solvent) culture
[16] = S. aureus 6850, culture treated over night with 20 μM PD0184264
[17] = S. aureus 6850, untreated (solvent) culture
[18] = S. aureus USA300, culture treated over night with PD0184264
[19] = S. aureus USA300, untreated (solvent) culture

Compound: O=C(NOCC1CC1)c1ccc(F)c(F)c1Nc1ccc(I)cc1Cl [CI-1040, 2-(2-chloro-4-iodophenylamino)-N-(cyclopropylmethoxy)-3,4-difluoro benzamide, reference compound]
- reduction of virus titer [1]: 96.78±0.65%
- EC50 [2]: 26 nM
- effect on bacterial titers (CFU/ml) [3]: effective
- drug in plasma at eight hours ([4]; 75 mg/kg i.v. application): almost no drug was detected
- drug in plasma at eight hours ([4]; 150 mg/kg per os application): almost no drug was detected
- CC50 [5]: > 312000 nM
- bacterial growth (OD600) [6]: slightly inhibited
- intracellular bacterial titers [7]: no changes in intracellular bacterial load

Compound: O=C(O)c1cn(C2CC2)c2cc(N3CCNCC3)c(F)cc2c1=O [Ciprofloxacin]
- MIC [8, 12]: 0.12 to 0.25 µg/mL
- MIC [8, 13]: 0.25 µg/mL
- MIC [9, 14]: 4 to 8 µg/mL
- MIC [9, 15]: 8 µg/mL

Compound: Gentamicin
- reduction in bacterial titers ([3]; 0.5 μg/ml, over night, S. aureus 6850): no reduction in bacterial titers
- bacterial growth ([3]; concentrations higher than 1 μg/ml, over night, S. aureus 6850): strongly inhibited
- Minimal inhibitory concentration (MIC) [8, 16]: 0.12 µg/mL
- Minimal inhibitory concentration (MIC) [8, 17]: 2 µg/mL
- reduction in bacterial titers ([10]; 0.5 μg/ml, over night, MRSA USA300): no reduction in bacterial titers
- bacterial growth ([10]; concentrations higher than 1 μg/ml, over night, MRSA USA300): strongly inhibited
- Minimal inhibitory concentration (MIC) [9, 18]: 0.12 µg/mL
- Minimal inhibitory concentration (MIC) [9, 19]: 1 µg/mL
- resistance development in S. aureus [11]: resistance development occurred during the first week of treatment

Compound: Penicillin
- Minimal inhibitory concentration (MIC) [8, 16]: 0.25 to 0.5 µg/mL
- Minimal inhibitory concentration (MIC) [8, 17]: 16 µg/mL
- Minimal inhibitory concentration (MIC) [9, 18]: 8 µg/mL
- Minimal inhibitory concentration (MIC) [9, 19]: >256 µg/mL

Compound: CC[C@H]1OC(=O)[C@H](C)[C@@H](O[C@H]2C[C@@](C)(OC)[C@@H](O)[C@H](C)O2)[C@H](C)[C@@H](O[C@@H]2O[C@H](C)C[C@H](N(C)C)[C@H]2O)[C@](C)(O)C[C@@H](C)C(=O)[C@H](C)[C@@H](O)[C@]1(C)O [Erythromycin]
- resistance development in S. aureus [11]: readily develop resistances

Compound: N#CC(=C(/N)Sc1ccccc1N)/C(C#N)=C(\N)Sc1ccccc1N [U0126, reference compound]
- effect on bacterial titers (CFU/ml) [3]: minor reduction in bacterial titers
- effect on bacterial titers (CFU/ml) ([10]; over night treatment, MRSA USA300, vs solvent): minor reduction in bacterial titers

Compound: C[C@@H](O)[C@H]1C(=O)N2C(C(=O)O)=C(S[C@@H]3CN[C@H](C(=O)N(C)C)C3)[C@H](C)[C@H]12 [Meropenem]
- MIC [8, 12]: 0.03 µg/mL
- MIC [8, 13]: 0.06 µg/mL
- MIC [9, 14]: 0.06 µg/mL
- MIC [9, 15]: 0.12 to 0.25 µg/mL

Compound: CC(=O)NC[C@H]1CN(c2ccc(N3CCOCC3)c(F)c2)C(=O)O1 [Linezolid]
- MIC [8, 12]: 1 µg/mL
- MIC [8, 13]: 2 µg/mL
- MIC [9, 14]: 1 µg/mL
- MIC [9, 15]: 2 µg/mL
